# Assay results as given in patent publication US20240124409A1, “GUAIANOLIDE SESQUITERPENE LACTONE DERIVATIVES AND PHARMACEUTICAL USE THEREOF” (NANJING UNIVERSITY OF CHINESE MEDICINE, priority 2021, published 2024).
# How the values were obtained:
# Solubility test in water = assay type: physicochemical; settings: thermodynamic from solid; deionized water, 37° C.
# Method: Saturated solutions were formulated, filtered and analyzed by HPLC with a sample volume of 1 μL, 3 μL, 5 μL, 10 μL, 15 µL and 20 μL sequentially, and the standard curves of the corresponding compounds were drawn.
# […] of the above compounds were formulated, dissolved by ultrasound for 4 h, and placed on a water bath at 37° C. to stand for 1 h. The resulting unsaturated solutions were centrifuged. 30 μL of supernatants were removed, diluted by adding 200 μL of deionized water, and then filtered.
# [1] = Conversion of Compound 23 to Compound 1 in HEPES7.4 solution; assay type: physicochemical; settings: HEPES buffer solution, 37° C.
# Method: Formulation of HEPES 7.4 solution: 1.6 g of NaCl, 0.074 g of KCl, 0.027 g of Na2HPO4, 0.2 g of glucose and 1 g of a 4-hydroxyethyl piperazine ethanesulfonic acid (HEPES) solution were placed in 90 mL of distilled water, the pH of which was adjusted to 7.4 with 0.5 M NaOH, and then the volume was adjusted to 100 mL with distilled water.
# 250 μL of the mouse serum or the HEPES7.4 solution was added into the sample, incubated at 37° C., and sampled at different time points, respectively. 20 μL of samples were taken into EP tubes, into which was added 60 μL of methanol, vortexed to mix well, and centrifuged at 12000 rpm at 4° C. for 10 min. The supernatants were taken at 1 h, 2 h, 4 h, 8 h and 12 h, respectively. The samples were analyzed by HPLC with an injection volume of 10 μL, and the corresponding peak areas were recorded. The chromatographic conditions were as follows: the chromatographic column was Hanbang C18 (4.6×250 mm, 5 um); the mobile phase was acetonitrile: […] of ammonium formate solution =60: 40; the flow rate was 1.0 mL/min; the detection wavelength was 210 nm; and the column temperature was 30° C.
SMILES,solubility (Solubility test in water) [µg/mL],content of Compound 1 (converted from Compound 23) ([1]; 1 h) [%],content of Compound 1 (converted from Compound 23) ([1]; 2 h) [%],content of Compound 1 (converted from Compound 23) ([1]; 4 h) [%],content of Compound 1 (converted from Compound 23) ([1]; 8 h) [%],content of Compound 1 (converted from Compound 23) ([1]; 12 h) [%]
C=C1C(=O)O[C@@H]2[C@@H]3[C@]4(CC[C@@]3(C)O)C[C@]4(C)CC[C@@H]12 [Compound 1],1140,–,–,–,–,–
CN(C)C[C@@H]1C(=O)O[C@H]2[C@H]1CC[C@@]1(C)C[C@]13CC[C@@](C)(O)[C@H]23 [Compound 23],–,5.36,11.05,19.64,39.29,55.36
